# Legend:
# Pseudomonas aeruginosa = assay: Kill-time test (exposure time, survivors, log and percent reduction in CFU); format: cell-based; details: Linalool 0.75% alone, at one minute
# Procedure: (§1) The following experiments were performed with a number of topical preparations to test the efficacy of each preparation against both gram negative and gram positive bacteria. The data is presented in tables showing the organism which the preparation was tested against, the exposure time, the number of survivors, the log reduction and the percent reduction in CFUs (Colony Forming Units).
# (§2) Experiments were performed with tea tree oil, manuka oil, alpha-terpineol, and linalool in the EyeCI vehicle. The EyeCL vehicle (Advanced Vision Research, Woburn, Mass.) and OcuSoft Lid Scrub Foaming Eyelid Cleanser (CYNACON/OCUSOFT, Rosenberg, Tex.) were tested as controls.
# Staphylococcus aureus = assay: as above; format: cell-based; details: at 1 minute
# Procedure: as §1, §2
# P. aeruginosa = details: disc diffusion and broth dilution methods; cited from earlier work
SMILES,log of Pseudomonas killing (Pseudomonas aeruginosa),log reduction in S. aureus killing (Staphylococcus aureus; 0.75% linalool alone) [log],log reduction in S. aureus (Staphylococcus aureus; 0.85% linalool) [log],activity against P. aeruginosa (P. aeruginosa)
C=CC(C)(O)CCC=C(C)C (centres unmarked) [linalool],greater than 1 log,~1,> 1,inactive
CC1=CCC(C(C)(C)O)CC1 (stereo not drawn) [alpha-terpineol],–,–,–,inactive
